US7074789B2, “Kinase inhibitors” (Amgen Inc., priority 1999, dated 2006)
Where two headings read alike, the source gives them in different places.

Columns and labels:
Format in all cases: biochemical
Lck = target: T1, Lck (Homo sapiens, UniProt P06239); test: Kinase inhibition assay (33P transfer), Lck; conditions: read-out: Lck-1
T1 construct: Kinases are expressed as either kinase domains or full length constructs; made in house
In short: (§1)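 Activity was read as 33P incorporation, counted by liquid scintillation after a 0.5% phosphoric acid wash, into poly(Glu,Tyr) 4:1 or poly(Arg,Ser) 3:1 substrates coated on plates. Enzymes were tagged (GST or polyHis) kinase domains or full-length proteins from bacterial or insect-cell expression, sometimes with regulatory polypeptides.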

Zap-70 = target: T2, Zap-70 (Homo sapiens, UniProt P43403); test: Kinase inhibition assay (33P transfer), Zap-70; conditions: read-out: Zap-1
T2 construct: Kinases are expressed as either kinase domains or full length constructs; made in house
T2 sequence (P43403 1-619): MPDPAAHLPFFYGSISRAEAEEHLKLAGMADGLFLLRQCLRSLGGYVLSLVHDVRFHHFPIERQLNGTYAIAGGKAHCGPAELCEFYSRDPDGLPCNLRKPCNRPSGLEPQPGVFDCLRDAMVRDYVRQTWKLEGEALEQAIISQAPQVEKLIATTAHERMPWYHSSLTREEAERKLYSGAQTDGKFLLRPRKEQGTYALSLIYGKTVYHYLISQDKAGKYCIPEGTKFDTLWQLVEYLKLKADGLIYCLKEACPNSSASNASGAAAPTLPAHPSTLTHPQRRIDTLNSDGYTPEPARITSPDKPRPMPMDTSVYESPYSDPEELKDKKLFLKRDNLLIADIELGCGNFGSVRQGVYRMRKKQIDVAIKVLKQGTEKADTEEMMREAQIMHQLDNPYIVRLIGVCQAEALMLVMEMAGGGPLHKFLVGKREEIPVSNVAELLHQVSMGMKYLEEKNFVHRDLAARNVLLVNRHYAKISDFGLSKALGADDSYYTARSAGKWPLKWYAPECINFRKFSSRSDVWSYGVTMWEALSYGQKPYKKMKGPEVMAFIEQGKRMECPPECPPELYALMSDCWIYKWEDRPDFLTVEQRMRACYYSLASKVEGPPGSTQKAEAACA
In short: as §1

Itk = target: T3, Itk (Homo sapiens, UniProt Q08881); test: Kinase inhibition assay (33P transfer), Itk; conditions: read-out: Itk-1
T3 construct: Kinases are expressed as either kinase domains or full length constructs; made in house
T3 sequence (Q08881 1-620): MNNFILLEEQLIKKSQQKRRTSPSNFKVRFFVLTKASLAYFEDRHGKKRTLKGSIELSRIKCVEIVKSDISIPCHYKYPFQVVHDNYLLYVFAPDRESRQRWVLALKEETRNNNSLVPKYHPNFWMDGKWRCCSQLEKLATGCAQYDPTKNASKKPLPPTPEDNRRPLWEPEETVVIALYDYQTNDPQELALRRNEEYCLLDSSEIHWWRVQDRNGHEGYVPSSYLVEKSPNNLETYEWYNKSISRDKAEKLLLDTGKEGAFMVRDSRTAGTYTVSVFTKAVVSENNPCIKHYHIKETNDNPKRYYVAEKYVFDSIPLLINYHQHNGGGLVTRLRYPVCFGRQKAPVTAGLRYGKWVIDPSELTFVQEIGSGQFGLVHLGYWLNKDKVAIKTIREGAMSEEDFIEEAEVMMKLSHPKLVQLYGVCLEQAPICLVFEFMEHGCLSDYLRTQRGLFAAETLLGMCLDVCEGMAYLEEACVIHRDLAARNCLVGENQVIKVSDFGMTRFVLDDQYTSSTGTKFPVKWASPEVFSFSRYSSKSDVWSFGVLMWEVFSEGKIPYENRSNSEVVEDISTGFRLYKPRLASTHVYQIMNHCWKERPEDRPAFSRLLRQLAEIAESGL
In short: (§2)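 IC50: inhibitor concentration lowering 33P incorporation into immobilised substrate by 50%. Label transferred from ATP to poly(Glu,Tyr) 4:1 or poly(Arg,Ser) 3:1 is measured after a 0.5% phosphoric acid wash by liquid scintillation.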

EGFR = target: T4, EGFR (Homo sapiens, UniProt P00533); test: Kinase inhibition assay (33P transfer), EGFR; conditions: Table 2, kinase inhibition class; read-out: EGFR-1
T4 construct: Kinases are expressed as either kinase domains or full length constructs; made in house
In short: as §2

Kdr = target: T5, Kdr (Homo sapiens, UniProt P35968); test: Kinase inhibition assay (33P transfer), Kdr; conditions: read-out: KDR-1
T5 construct: Kinases are expressed as either kinase domains or full length constructs; made in house
In short: as §1

Tek = target: T6, Tek (Homo sapiens, UniProt Q02763); test: Kinase inhibition assay (33P transfer), Tek; conditions: read-out: Tek-1
T6 construct: Kinases are expressed as either kinase domains or full length constructs; made in house
In short: as §2

c-Met = target: T7, c-Met (Homo sapiens, UniProt P08581); test: Kinase inhibition assay (33P transfer), c-Met; conditions: Table 2, kinase inhibition class; read-out: Met-1
T7 construct: Kinases are expressed as either kinase domains or full length constructs; made in house
In short: as §2

AKT = target: T8, AKT (Homo sapiens, UniProt Q9Y243); test: Kinase inhibition assay (33P transfer), AKT; conditions: Table 2, kinase inhibition class; read-out: AKT3-1
T8 construct: Kinases are expressed as either kinase domains or full length constructs; made in house
In short: as §1

T5 sequence (P35968 20-1356, species assumed): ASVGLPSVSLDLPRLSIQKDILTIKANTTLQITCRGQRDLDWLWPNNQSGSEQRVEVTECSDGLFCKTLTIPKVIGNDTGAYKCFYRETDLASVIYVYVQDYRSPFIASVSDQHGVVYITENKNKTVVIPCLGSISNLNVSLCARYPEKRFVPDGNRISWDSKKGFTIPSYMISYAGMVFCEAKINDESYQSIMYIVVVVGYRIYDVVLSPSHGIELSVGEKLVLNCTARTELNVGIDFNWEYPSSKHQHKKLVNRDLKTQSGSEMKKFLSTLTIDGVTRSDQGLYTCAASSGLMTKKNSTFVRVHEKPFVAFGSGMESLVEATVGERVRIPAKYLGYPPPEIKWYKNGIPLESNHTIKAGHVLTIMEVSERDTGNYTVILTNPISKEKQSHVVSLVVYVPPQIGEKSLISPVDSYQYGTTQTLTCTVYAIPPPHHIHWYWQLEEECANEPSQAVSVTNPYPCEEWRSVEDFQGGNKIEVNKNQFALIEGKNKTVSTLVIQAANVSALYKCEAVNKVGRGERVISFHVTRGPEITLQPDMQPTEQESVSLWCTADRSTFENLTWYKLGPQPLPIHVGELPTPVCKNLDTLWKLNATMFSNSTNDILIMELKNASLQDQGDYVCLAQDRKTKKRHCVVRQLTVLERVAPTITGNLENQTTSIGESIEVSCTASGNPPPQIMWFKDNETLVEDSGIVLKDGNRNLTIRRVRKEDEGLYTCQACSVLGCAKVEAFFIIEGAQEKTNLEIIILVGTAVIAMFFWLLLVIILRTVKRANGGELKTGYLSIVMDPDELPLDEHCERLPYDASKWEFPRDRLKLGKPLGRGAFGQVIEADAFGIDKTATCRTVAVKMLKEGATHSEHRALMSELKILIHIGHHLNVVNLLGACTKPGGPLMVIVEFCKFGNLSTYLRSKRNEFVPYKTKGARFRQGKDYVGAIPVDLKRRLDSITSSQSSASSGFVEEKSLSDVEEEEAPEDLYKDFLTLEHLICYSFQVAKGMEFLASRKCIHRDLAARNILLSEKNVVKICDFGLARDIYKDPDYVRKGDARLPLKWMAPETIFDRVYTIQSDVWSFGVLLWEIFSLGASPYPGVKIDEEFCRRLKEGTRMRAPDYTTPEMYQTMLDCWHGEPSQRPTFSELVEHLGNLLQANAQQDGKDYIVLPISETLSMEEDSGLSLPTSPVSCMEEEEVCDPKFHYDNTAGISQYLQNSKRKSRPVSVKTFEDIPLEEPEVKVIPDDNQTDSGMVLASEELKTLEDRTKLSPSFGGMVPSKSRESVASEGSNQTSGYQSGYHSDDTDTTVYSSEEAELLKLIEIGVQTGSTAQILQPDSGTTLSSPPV
T4 sequence (P00533 25-1210, species assumed): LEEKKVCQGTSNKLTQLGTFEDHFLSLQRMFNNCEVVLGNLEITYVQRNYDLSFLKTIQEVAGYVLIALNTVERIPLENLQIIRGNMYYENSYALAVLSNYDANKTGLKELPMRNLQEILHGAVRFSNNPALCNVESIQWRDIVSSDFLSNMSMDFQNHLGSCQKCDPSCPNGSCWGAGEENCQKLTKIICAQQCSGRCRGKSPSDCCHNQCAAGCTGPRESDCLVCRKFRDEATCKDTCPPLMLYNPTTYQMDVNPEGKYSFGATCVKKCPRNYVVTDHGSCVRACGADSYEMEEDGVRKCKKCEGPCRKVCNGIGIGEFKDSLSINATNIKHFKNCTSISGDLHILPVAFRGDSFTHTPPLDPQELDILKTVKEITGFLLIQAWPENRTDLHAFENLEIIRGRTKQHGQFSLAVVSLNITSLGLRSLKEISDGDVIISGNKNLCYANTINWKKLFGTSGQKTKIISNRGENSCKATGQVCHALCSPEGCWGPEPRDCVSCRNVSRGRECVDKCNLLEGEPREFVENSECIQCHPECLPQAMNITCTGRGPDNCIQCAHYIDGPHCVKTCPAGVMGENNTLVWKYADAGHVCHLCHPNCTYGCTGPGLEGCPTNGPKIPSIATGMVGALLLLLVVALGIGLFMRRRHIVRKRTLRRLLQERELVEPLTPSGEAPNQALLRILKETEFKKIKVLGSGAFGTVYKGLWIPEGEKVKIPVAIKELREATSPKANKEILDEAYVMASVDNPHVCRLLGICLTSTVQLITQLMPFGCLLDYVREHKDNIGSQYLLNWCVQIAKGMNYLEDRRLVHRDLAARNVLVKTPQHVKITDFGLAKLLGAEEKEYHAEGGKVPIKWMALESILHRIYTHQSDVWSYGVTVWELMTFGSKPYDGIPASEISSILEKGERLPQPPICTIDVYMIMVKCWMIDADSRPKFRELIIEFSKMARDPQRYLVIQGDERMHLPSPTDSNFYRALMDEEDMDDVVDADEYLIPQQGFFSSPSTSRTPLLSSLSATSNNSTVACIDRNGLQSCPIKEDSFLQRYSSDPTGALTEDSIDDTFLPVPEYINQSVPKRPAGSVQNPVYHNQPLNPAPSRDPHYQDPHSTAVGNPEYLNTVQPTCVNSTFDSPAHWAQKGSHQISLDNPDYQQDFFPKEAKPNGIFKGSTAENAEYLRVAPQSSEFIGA
T7 sequence (P08581 25-1390): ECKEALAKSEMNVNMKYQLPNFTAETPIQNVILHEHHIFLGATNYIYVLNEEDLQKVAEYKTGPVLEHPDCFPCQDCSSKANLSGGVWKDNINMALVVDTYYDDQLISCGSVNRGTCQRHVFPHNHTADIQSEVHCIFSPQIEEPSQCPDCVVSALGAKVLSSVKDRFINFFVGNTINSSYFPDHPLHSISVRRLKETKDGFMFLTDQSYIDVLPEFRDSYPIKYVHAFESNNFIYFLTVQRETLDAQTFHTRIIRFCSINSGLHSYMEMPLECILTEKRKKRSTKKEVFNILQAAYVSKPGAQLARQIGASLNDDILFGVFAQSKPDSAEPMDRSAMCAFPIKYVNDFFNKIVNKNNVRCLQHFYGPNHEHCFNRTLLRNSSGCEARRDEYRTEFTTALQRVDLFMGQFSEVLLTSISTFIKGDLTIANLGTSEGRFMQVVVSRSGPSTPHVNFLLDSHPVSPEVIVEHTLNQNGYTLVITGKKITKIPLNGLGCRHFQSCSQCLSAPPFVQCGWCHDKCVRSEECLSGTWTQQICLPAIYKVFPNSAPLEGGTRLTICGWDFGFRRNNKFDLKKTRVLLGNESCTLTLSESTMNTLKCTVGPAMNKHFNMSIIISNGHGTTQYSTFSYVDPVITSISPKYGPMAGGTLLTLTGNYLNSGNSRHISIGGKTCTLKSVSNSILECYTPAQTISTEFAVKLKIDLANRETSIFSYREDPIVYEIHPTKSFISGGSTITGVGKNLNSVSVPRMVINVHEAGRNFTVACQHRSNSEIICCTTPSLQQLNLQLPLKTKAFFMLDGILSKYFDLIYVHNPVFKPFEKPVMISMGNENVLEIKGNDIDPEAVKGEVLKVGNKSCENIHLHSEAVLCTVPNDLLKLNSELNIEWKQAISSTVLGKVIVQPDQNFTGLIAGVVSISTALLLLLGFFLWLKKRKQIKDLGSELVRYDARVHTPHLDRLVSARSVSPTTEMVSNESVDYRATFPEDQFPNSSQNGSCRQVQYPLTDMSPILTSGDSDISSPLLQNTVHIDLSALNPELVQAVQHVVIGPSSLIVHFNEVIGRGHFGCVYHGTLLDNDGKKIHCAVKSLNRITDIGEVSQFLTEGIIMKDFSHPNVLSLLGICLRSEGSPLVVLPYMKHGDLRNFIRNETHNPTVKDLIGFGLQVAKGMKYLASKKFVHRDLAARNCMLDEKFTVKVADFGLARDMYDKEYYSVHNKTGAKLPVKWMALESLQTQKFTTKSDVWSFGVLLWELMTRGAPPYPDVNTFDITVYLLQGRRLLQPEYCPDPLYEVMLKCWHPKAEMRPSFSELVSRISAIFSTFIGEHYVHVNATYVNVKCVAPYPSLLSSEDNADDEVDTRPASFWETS
T6 sequence (Q02763 23-1124, species assumed): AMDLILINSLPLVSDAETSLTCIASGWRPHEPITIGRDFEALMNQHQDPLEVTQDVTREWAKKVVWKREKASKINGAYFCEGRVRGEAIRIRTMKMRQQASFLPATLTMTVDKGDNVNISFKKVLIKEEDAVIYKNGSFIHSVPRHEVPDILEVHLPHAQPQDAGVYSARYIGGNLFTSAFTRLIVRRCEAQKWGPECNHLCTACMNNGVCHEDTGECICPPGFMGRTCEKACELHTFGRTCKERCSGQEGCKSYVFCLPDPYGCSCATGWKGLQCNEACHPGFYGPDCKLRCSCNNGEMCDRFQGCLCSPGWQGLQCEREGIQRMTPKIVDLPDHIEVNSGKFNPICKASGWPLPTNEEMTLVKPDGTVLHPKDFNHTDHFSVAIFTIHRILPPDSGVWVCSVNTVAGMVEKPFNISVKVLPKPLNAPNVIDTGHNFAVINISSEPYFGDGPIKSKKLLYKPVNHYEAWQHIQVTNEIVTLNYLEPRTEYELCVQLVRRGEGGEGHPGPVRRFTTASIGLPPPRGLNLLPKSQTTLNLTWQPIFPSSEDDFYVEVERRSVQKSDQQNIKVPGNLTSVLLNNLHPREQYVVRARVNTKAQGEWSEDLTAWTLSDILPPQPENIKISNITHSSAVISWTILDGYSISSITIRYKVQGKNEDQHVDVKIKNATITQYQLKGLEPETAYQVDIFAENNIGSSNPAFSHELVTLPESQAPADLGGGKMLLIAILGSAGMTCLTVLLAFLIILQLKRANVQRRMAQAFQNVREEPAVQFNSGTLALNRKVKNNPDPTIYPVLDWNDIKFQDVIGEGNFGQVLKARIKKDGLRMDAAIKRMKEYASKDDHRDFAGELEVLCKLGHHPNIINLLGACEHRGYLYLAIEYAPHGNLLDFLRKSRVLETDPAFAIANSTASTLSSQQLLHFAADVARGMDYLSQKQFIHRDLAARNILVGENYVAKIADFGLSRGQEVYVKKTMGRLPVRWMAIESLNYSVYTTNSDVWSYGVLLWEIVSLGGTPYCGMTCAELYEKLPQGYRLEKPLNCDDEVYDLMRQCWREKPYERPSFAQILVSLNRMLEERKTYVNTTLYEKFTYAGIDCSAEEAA

Row | IC50 (Lck) [µM] | IC50 (Zap-70) [µM] | IC50 (Itk) [µM] | IC50 (EGFR) [µM] | IC50 (Kdr) [µM] | IC50 (Tek) [µM] | IC50 (c-Met) [µM] | IC50 (AKT) [µM] | IC50 (Lck; Table 3) [µM] | IC50 (Zap-70; Table 3) [µM] | IC50 (Itk; Table 3) [µM] | IC50 (Kdr; Table 3) [µM] | SMILES
1 | 9.15 to 11.8 | > 11.8 | 1.05 to 6.28 | > 11.8 | < 1.05 | > 11.8 | 1.05 to 6.28 | > 11.8 |  |  |  |  | Nc1nc2ccccc2n1-c1ncnc(Nc2ccc(S(N)(=O)=O)cc2)n1 [Compound 923]
2 | 6.22 to 8 | > 8 | > 8 | > 8 | < 0.711 | > 8 | > 8 | > 8 |  |  |  |  | COc1cc(Nc2ncnc(-n3c(NCc4ccc(Br)cc4)nc4ccccc43)n2)cc(OC)c1OC [Compound 940]
3 | > 9.03 | > 9.03 | > 9.03 | > 9.03 | > 9.03 | > 9.03 | > 9.03 | > 9.03 |  |  |  |  | COc1cc(Nc2ncnc(-n3c(NCc4ncccc4C)nc4ccccc43)n2)cc(OC)c1OC [Compound 941]
4 | 6.84 to 8.8 | > 8.8 | > 8.8 | > 8.8 | 0.782 to 4.69 | > 8.8 | > 8.8 | > 8.8 |  |  |  |  | COc1cc(Nc2ncnc(-n3c(NCCCc4ccccc4)nc4ccccc43)n2)cc(OC)c1OC [Compound 945]
5 | > 9.03 | > 9.03 | 4.81 to 7.02 | > 9.03 | < 0.802 | > 9.03 | > 9.03 | > 9.03 |  |  |  |  | COc1cc(Nc2ncnc(-n3c(NCCc4cccnc4)nc4ccccc43)n2)cc(OC)c1OC [Compound 947]
6 | 4.81 to 7.02 | > 9.03 | 4.81 to 7.02 | > 9.03 | 0.802 to 4.81 | > 9.03 | > 9.03 | > 9.03 |  |  |  |  | COc1cc(Nc2ncnc(-n3c(NCCc4ccncc4)nc4ccccc43)n2)cc(OC)c1OC [Compound 948]
7 | > 12.2 | > 12.2 | > 12.2 | 1.09 to 6.53 | 6.53 to 9.53 | > 12.2 | 1.09 to 6.53 | > 12.2 |  |  |  |  | CC(C)(C)c1cc(Nc2ncnc(Nc3cccc(CC(=O)O)c3)n2)[nH]n1 [Compound 979]
8 | > 12.2 | > 12.2 | 9.53 to 12.2 | 1.09 to 6.53 | > 12.2 | > 12.2 | 9.53 to 12.2 | 1.09 to 6.53 |  |  |  |  | CC(C)(C)c1cc(Nc2ncnc(Nc3ccc(CC(=O)O)cc3)n2)[nH]n1 [Compound 980]
9 | 1.03 to 6.2 | 1.03 to 6.2 | 1.03 to 6.2 | 1.03 to 6.2 | < 1.03 | 1.03 to 6.2 | 1.03 to 6.2 | 9.03 to 11.6 |  |  |  |  | O=C(O)Cc1ccc(Nc2ncnc(Nc3cc(-c4ccccc4)n[nH]3)n2)cc1 [Compound 982]
10 | 1.06 to 6.36 | 9.27 to 11.9 | 1.06 to 6.36 | < 1.06 | < 1.06 | > 11.9 | 1.06 to 6.36 | > 11.9 |  |  |  |  | O=C(O)Cc1ccc(Nc2ncnc(Nc3cc(-c4ccco4)n[nH]3)n2)cc1 [Compound 984]
11 | 0.892 to 5.35 | > 10 | 5.35 to 7.8 | 0.892 to 5.35 | 0.892 to 5.35 | 5.35 to 7.8 | 5.35 to 7.8 | > 10 |  |  |  |  | CC(C)(C)OC(=O)NCc1cccc(Nc2ncnc(Nc3cc(-c4ccco4)n[nH]3)n2)c1 [Compound 985]
12 | > 9.81 | > 9.81 | 5.23 to 7.63 | 5.23 to 7.63 | 0.872 to 5.23 | 7.63 to 9.81 | 0.872 to 5.23 | > 9.81 |  |  |  |  | CC(C)(C)OC(=O)NCc1cccc(Nc2ncnc(Nc3cc(-c4ccccc4)n[nH]3)n2)c1 [Compound 986]
13 | > 13 | > 13 | > 13 | > 13 | 10.1 to 13 | > 13 | > 13 | > 13 |  |  |  |  | COc1cc(Nc2ncnc(NN3CCCC3)n2)cc(OC)c1OC [Compound 1002]
14 | 0.851 to 5.11 | 5.11 to 7.45 | 0.851 to 5.11 | 5.11 to 7.45 | 0.851 to 5.11 | 0.851 to 5.11 | 0.851 to 5.11 | > 9.58 |  |  |  |  | COc1cc(Nc2ncnc(Nc3n[nH]c(Nc4ccc(Cl)cc4)n3)n2)cc(OC)c1OC [Compound 1003]
15 |  |  |  | 15.1 to 19.5 |  | > 19.5 | > 19.5 | > 19.5 | > 19.5 | 15.1 to 19.5 | > 19.5 | 10.4 to 15.1 | Nc1ncnc(Nc2ccc3c(c2)OCO3)n1 [Compound 1025]
16 | 0.804 to 4.82 | > 9.04 | > 9.04 | > 9.04 | < 0.804 | > 9.04 | 7.03 to 9.04 | > 9.04 |  |  |  |  | COc1cc(Nc2ncnc(-n3c(N[C@H](C)c4ccccc4)nc4ccccc43)n2)cc(OC)c1OC [Compound 1034]
17 | > 8.76 | > 8.76 | > 8.76 | > 8.76 | < 0.779 | > 8.76 | > 8.76 | > 8.76 |  |  |  |  | COc1cc(Nc2ncnc(-n3c(N[C@H](CO)c4ccccc4)nc4ccccc43)n2)cc(OC)c1OC [Compound 1035]
18 | 0.975 to 5.85 | > 11 | > 11 | > 11 | > 11 | > 11 | > 11 | > 11 |  |  |  |  | COC(=O)C(c1ccccc1)c1ncnc(Nc2cc(OC)c(OC)c(OC)c2)n1 (stereo not shown) [Compound 1038]
19 | > 12 | > 12 | > 12 | > 12 | 9.36 to 12 | > 12 | > 12 | > 12 |  |  |  |  | COc1cc(Nc2ncnc(-c3cccnc3Cl)n2)cc(OC)c1OC [Compound 1075]
20 | > 10.9 | > 10.9 | > 10.9 | > 10.9 | 0.972 to 5.83 | > 10.9 | > 10.9 | > 10.9 |  |  |  |  | COc1cc(Nc2ncnc(-c3cccnc3NCCCN)n2)cc(OC)c1OC [Compound 1078]
